The subject of data set [1] is Candida albicans. The experiment in a line: Fungicidal activity against FCZ-resistant Candida albicans 17#. In kind it is functional.
Data set [2] has as its system Candida albicans. The data set can be described thus: Fungicidal activity against FCZ-resistant Candida albicans 901. In kind it is functional.
In data set [3] the target is T1, Lanosterol 14-alpha demethylase (Candida albicans (strain SC5314 / ATCC MYA-2876) (Yeast), UniProt P10613). The data set can be described thus: Inhibition of CYP51 of Candida albicans ATCC SC5314 assessed as increase in obtusifoliol level at 4 ug/ml incubated for 16 hrs by GC-MS analysis (reference value: 0 %). Also noted: scale not given: the % may be the effect or the level left. The conditions noted are these: at 4 µg/mL.

Data set [4] has as its target T1, Lanosterol 14-alpha demethylase. The data set can be described thus: Inhibition of CYP51 of Candida albicans ATCC SC5314 assessed as increase in lanosterol level at 2 ug/ml incubated for 16 hrs by GC-MS analysis (reference value: 1.7 %). Set-up: scale not given: the % may be the effect or the level left. The following applies: at 2 µg/mL.
Data set [5] shares this target. The data set can be described thus: Inhibition of CYP51 of Candida albicans ATCC SC5314 assessed as increase in eburicol level at 2 ug/ml incubated for 16 hrs by GC-MS analysis (reference value: 0 %). Also noted: scale not given: the % may be the effect or the level left. The conditions noted are these: at 2 µg/mL.
For data set [6], the system named is Candida albicans. The experiment in a line: Antibiofilm activity against Candida albicans CPCC400616 assessed as sessile minimum inhibitory concentration measured after 6 hrs by XTT assay. In kind it is functional.
Data set [7] in a line: Cytotoxicity against human PC-3 cells by MTT assay. Type of data set: toxicity, cell-based.
Data set [8] has as its system Candida albicans. The data set can be described thus: Antifungal activity against Candida albicans ATCC SC5314 infected in mouse model assessed as reduction in kidney fungal burden at 6 to 12 mg/kg, ip measured after 5 consecutive days by colony forming unit assay. In kind it is functional, organism-based. The conditions noted are these: dose 6-12 mg/kg, time 5.0 day.

Data set [9] can be described thus: Acute toxicity in water diet-fed Kunming mouse administered intragastrically measured for 7 days. The following applies: in vivo, po, route ig, time 7 day.
The nature of data set [10]: Subacute toxicity in water diet-fed Kunming mouse assessed as animal death at 100 to 200 mg/kg, IG measured after 7 to 14 days of continuous administration. Type of data set: organism-based. The conditions noted are these: in vivo, po, dose lower 100 mg/kg, time lower 7 day, dose upper 200 mg/kg, time upper 14 day.
The nature of data set [11]: Subacute toxicity in water diet-fed Kunming mouse assessed as lesions in liver at 100 to 200 mg/kg, IG measured after 8 to 15 days. The following applies: in vivo, po, dose lower 100 mg/kg, time lower 8 day, dose upper 200 mg/kg, time upper 15 day. Type of data set: organism-based.
Data set [12] in a line: Subacute toxicity in water diet-fed Kunming mouse assessed as effect on kidney at 100 to 200 mg/kg, IG measured after 7 to 14 days by microscopic analysis. The conditions noted are these: in vivo, po, dose lower 100 mg/kg, time lower 7 day, dose upper 200 mg/kg, time upper 14 day. In kind it is organism-based.

Converted amounts (≈) assume the structure as drawn. The source made the active and inactive calls. The calls are words filed in the database; no cut-off is given here.

T1 sequence (P10613 whole entry): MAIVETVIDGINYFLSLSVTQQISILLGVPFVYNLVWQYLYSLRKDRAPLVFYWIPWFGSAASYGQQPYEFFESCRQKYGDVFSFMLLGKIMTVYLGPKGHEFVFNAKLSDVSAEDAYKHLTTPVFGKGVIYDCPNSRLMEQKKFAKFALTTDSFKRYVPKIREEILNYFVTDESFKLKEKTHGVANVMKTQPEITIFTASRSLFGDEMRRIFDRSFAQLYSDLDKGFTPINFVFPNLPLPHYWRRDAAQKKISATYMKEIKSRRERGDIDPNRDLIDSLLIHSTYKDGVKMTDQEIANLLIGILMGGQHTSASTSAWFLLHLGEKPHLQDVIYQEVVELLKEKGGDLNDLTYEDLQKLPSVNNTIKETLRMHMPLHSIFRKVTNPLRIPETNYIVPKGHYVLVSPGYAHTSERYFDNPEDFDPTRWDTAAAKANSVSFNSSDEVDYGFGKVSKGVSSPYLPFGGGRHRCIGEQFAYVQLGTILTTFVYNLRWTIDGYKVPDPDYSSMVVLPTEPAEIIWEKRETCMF

As to `Clc1ccc(C(Cn2ccnc2)[Se][Se]C(Cn2ccnc2)c2ccc(Cl)cc2Cl)c(Cl)c1` (stereo not drawn), the MFC in data set [1] is more than 64 µg/mL; in data set [2], 2 µg/mL (≈ 3.13 µM). The Activity in data set [3] is 13.5%; in [4], 22.6%; in data set [5], 62.8%; in data set [10], “Non-Toxic”; in [11] it was “Non-Toxic”; in data set [12] it was “Toxic”. In data set [6], the MIC50 is 1 µg/mL (≈ 1.57 µM). Moreover, in [6], the MIC80 turned out to be 4 µg/mL (≈ 6.27 µM). Half-maximal inhibition in [7] (IC50) was put at 1.43 µM. Besides, the result in [8] was Active. This compound returned an LD50 at 168 h in [9] of approximately 2000 mg/kg.

The values above are taken from ChEMBL document CHEMBL5352410, “Discovery of novel selenium-containing azole derivatives as antifungal agents by exploiting the hydrophobic cleft of CYP51” (Eur J Med Chem, 2022).
